We go through 39 compounds from ChEMBL document CHEMBL3714727, “Novel dihydropyrimidinoisoquinolinones and pharmaceutical compositions thereof for the treatment of inflammatory disorders (gpr84 antagonists)” (2014).

For the first experiment, the target named is T1, G-protein coupled receptor 84 (Homo sapiens, UniProt Q9NQS5). The experiment can be described thus: Antagonist activity against GPR84 (unknown origin) expressed in cell membranes assessed as inhibition of 3,3'-di-indolylmethane-induced [35S]GTPgammaS binding treated for 90 mins after 3,3'-di-indolylmethane stimulation in buffer containing 20 mM HEPES at pH 7.4 by top-count assay. It is filed as functional. (GTPγS resists hydrolysis and so accumulates on activated G proteins.)
T1 sequence (Q9NQS5 whole entry): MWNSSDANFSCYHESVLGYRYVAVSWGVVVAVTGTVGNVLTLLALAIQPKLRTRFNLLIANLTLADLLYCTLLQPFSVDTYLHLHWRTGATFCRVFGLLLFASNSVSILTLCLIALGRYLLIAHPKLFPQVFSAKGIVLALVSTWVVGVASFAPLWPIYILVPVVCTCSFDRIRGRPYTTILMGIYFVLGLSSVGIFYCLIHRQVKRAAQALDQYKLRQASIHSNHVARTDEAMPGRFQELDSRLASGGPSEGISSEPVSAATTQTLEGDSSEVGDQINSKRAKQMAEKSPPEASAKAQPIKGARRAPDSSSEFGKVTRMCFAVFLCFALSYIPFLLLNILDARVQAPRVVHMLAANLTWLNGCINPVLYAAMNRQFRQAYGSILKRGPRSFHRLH
Usually IC50 stands for the concentration needed to halve the response being measured. As for `O=c1nc(OCC2CCCO2)cc2n1CCc1cc(OCc3cccc(-c4cncnc4)n3)ccc1-2` (centres undefined), the IC50 is at most 500 nM.
The same measure, in the same setting: next, `O=c1nc(OCC2CCCO2)cc2n1CCc1cc(OCC3COc4ccccc4O3)ccc1-2` (centres undefined): at most 100 nM; `NC(=O)COc1ccc2c(c1)CCn1c-2cc(OCC2CCCO2)nc1=O` (centres undefined): above 1000 nM; `CC(C)N(C)C(=O)COc1ccc2c(c1)CCn1c-2cc(OCC2CCCO2)nc1=O` (centres undefined): above 1000 nM.
For the compound `CC1(COCc2ccc3c(c2)CCn2c-3cc(OCC3COc4ncccc4O3)nc2=O)COC1` (centres undefined), the half-inhibitory concentration (IC50) is at most 100 nM.
On the same count and under the same terms, for `CC(C)(C)NCc1ccc2c(c1)CCn1c-2cc(OCC2COc3ncccc3O2)nc1=O` (centres undefined) the value was above 1000 nM; for `C=CCOc1ccc2c(c1)CCn1c-2cc(OCC2CCCO2)nc1=O` (centres undefined), above 1000 nM; for `O=C(O)c1ccc(-c2ccc3c(c2)CCn2c-3cc(OCC3CCCO3)nc2=O)cc1` (centres undefined), above 1000 nM.
On to `N#CCOc1ccc2c(c1)CCn1c-2cc(OCC2COc3ncccc3O2)nc1=O` (centres undefined), for which the concentration for half-maximal inhibition (IC50) was at most 100 nM.
Regarding `CC(C)(O)C#Cc1ccc2c(c1)CCn1c-2cc(OCC2COc3ncccc3O2)nc1=O` (centres undefined), the IC50 was at most 100 nM.
As for `CN(C)C(=O)COc1ccc2c(c1)CCn1c-2cc(OCC2CCCO2)nc1=O` (centres undefined), the half-inhibitory concentration (IC50) is above 1000 nM.
On the same count and under the same terms, next, `COc1ccc2c(c1)CCn1c-2cc(OCC2CCc3ccccc3O2)nc1=O` (centres undefined): above 1000 nM.
Still for that read-out and setting: for `O=c1nc(OCC2CCCO2)cc2n1CCc1cc(O)ccc1-2` (centres undefined) the value was above 1000 nM.
Same read-out and setting: for `COc1ccc(COc2ccc3c(c2)CCn2c-3cc(OCC3CCCO3)nc2=O)cc1` (centres undefined) the value was at most 100 nM.
Regarding `CCC(O)C#Cc1ccc2c(c1)CCn1c-2cc(OCC2COc3ncccc3O2)nc1=O` (centres undefined), the IC50 is at most 100 nM.
Same read-out and setting: for `O=c1nc(OCC2CCCO2)cc2n1CCc1cc(OCc3cccc(-c4ccccc4)n3)ccc1-2` (centres undefined) the value was above 1000 nM.
Still for that read-out and setting: next, `O=c1nc(OCC2COc3ncccc3O2)cc2n1CCc1cc(OCc3ccccn3)ccc1-2` (centres undefined): at most 100 nM; `O=C(NCC1COC1)c1ccc2c(c1)CCn1c-2cc(OCC2COc3ncccc3O2)nc1=O` (centres undefined): above 1000 nM; `O=c1nc(OCC2COc3ncccc3O2)cc2n1CCc1cc(COCCN3CCOCC3)ccc1-2` (centres undefined): at most 100 nM.
For `Cn1cc(-c2ccc3c(c2)CCn2c-3cc(OCC3CCCO3)nc2=O)cn1` (centres undefined), the IC50 is above 1000 nM.
For the compound `N#Cc1ccc(-c2ccc3c(c2)CCn2c-3cc(OCC3CCCO3)nc2=O)cc1` (centres undefined), the half-maximal inhibitory concentration (IC50) was above 1000 nM.
The same measure, in the same setting: next, `O=c1nc(OCC2COc3ncccc3O2)cc2n1CCc1cc(COC3COC3)ccc1-2` (centres undefined): at most 100 nM; `O=c1nc(OCC2CCCO2)cc2n1CCc1cc(OCc3cccc([N+](=O)[O-])c3)ccc1-2` (centres undefined): at most 100 nM; `O=c1nc(OCC2COc3ncccc3O2)cc2n1CCc1cc(-c3cn[nH]c3)ccc1-2` (centres undefined): at most 100 nM.
On the same count and under the same terms, for `CCN(CC)C(=O)COc1ccc2c(c1)CCn1c-2cc(OCC2CCCO2)nc1=O` (centres undefined) the value was above 1000 nM.
Regarding `O=c1nc(OCC2COc3ncccc3O2)cc2n1CCc1cc(C#CCNCc3ccccc3)ccc1-2` (centres undefined), the IC50 was at most 100 nM.
The same measure, in the same setting: for `CC(C)C(O)C#Cc1ccc2c(c1)CCn1c-2cc(OCC2COc3ncccc3O2)nc1=O` (centres undefined) the value was at most 100 nM.
As for `CCCC(O)C#Cc1ccc2c(c1)CCn1c-2cc(OCC2COc3ncccc3O2)nc1=O` (centres undefined), the concentration for half-maximal inhibition (IC50) was at most 100 nM.
Same read-out and setting: next, `O=c1nc(OCC2COc3ncccc3O2)cc2n1CCc1cc(CN3CCCCC3)ccc1-2` (centres undefined): at most 100 nM; `O=c1nc(OCC2CCCO2)cc2n1CCc1cc(OCCOc3ccccc3)ccc1-2` (centres undefined): at most 100 nM; `O=c1nc(OCC2COc3ccccc3O2)cc2n1CCc1cc(OCc3nnn[nH]3)ccc1-2` (centres undefined): at most 100 nM.
For the compound `N#CCOc1ccc2c(c1)CCn1c-2cc(OCC2CCCO2)nc1=O` (centres undefined), the IC50 is above 1000 nM.
For `O=c1nc(OCC2COc3ncccc3O2)cc2n1CCc1cc(OCc3nnn[nH]3)ccc1-2` (centres undefined), the IC50 is at most 100 nM.
On to `CC(O)C#Cc1ccc2c(c1)CCn1c-2cc(OCC2COc3ncccc3O2)nc1=O` (centres undefined), for which the concentration for half-maximal inhibition (IC50) is at most 100 nM.
Still for that read-out and setting: next, `O=c1nc(OCC2COc3ncccc3O2)cc2n1CCc1cc(OCc3ncco3)ccc1-2` (single isomer, unassigned): at most 100 nM.

In another experiment the target is T1, G-protein coupled receptor 84. Description: Antagonist activity against GPR84 (unknown origin) expressed in cell membranes assessed as inhibition of 3,3'-di-indolylmethane-induced [35S]GTPgammaS binding treated for 90 mins after 3,3'-di-indolylmethane stimulation in buffer containing 20 mM Tris at pH 7.5 by top-count assay. It is filed as functional.
As to `CN(C)C(=O)c1cccc(-c2ccc3c(c2)CCn2c-3cc(OCC3CCCO3)nc2=O)c1` (centres undefined), the IC50 is above 1000 nM.
Take `CC(C)(C)OC(=O)n1cccc1-c1ccc2c(c1)CCn1c-2cc(OCC2CCCO2)nc1=O` (centres undefined): the IC50 is above 1000 nM.
Regarding `Cc1cccc(C)c1-c1ccc2c(c1)CCn1c-2cc(OCC2CCCO2)nc1=O` (centres undefined), the half-maximal inhibitory concentration (IC50) is above 1000 nM.
For `O=c1nc(OCC2CCCO2)cc2n1CCc1cc(-c3cncnc3)ccc1-2` (centres undefined), the IC50 was above 1000 nM.
